What was measured:
Type in all cases: cell-based
rat thoracic aorta [1] = experiment: Combined vasorelaxing effects of TAA with GTN or SNP: phenylephrine-induced tension in rat thoracic aorta; conditions: 0.1 μM agent alone; control vehicle 2.1 g
Description: The rats were allowed to acclimate in environmentally controlled quarters (20-22° C. with 12:12 hr light-dark cycles). […] After equilibration, the aortic rings were stabilized with a near maximal contraction induced by 0.3 μM phenylephrine. When the rings achieved a stable level of contraction, 3 μM acetylcholine was added to the bath, in which the aorta rings were soaked, to assess endothelial integrity. Intimas were gently frayed with a cotton swab to disrupt the endothelium.

rat thoracic aorta [2] = experiment: Vasorelaxing effect on phenylephrine-induced contraction of rat thoracic aortic rings
rat thoracic aorta [3] = experiment: Relaxation of phenylephrine-contracted rat aortic rings in the presence of acetylcholine; conditions: 0.3 μM phenylephrine, acetylcholine 3 μM present
Description: Male Sprague-Dawley rats, weighing 250-350 g (Laboratory Animal Science Center of the National Yang-Ming University, Taipei, Taiwan), were used in this study. The rats were allowed to acclimate in environmentally controlled quarters (20-22° C. with 12:12 hr light-dark cycles). Thoracic aorta was excised carefully and fixed isometrically in organ chambers (15 mL) containing a 37° C. modified Krebs' solution (120 mM NaCl, 4.5 mM KCl, 2.5 mM CaCl2, 1 mM MgSO4, 27 mM NaHCO3, 1 mM KH2PO4, 10 mM glucose, pH 7.4) through which a mixture of 95% O2-5% CO2 was continuously supplied. The aortic rings of 3-4 mm were equilibrated under passive tension of 1.8 g for 60 min. After equilibration, the aortic rings were stabilized with a near maximal contraction induced by 0.3 μM phenylephrine. When the rings achieved a stable level of contraction, 3 μM acetylcholine was added to the bath, in which the aorta rings were soaked, to assess endothelial integrity. Intimas were gently frayed with a cotton swab to disrupt the endothelium.
The relaxation effect of TAA on rat thoracic aorta in the presence of acetylcholine was also investigated. Vascular contraction in rat aortic rings was induced by 0.3 μM phenylephrine as described above. Acetylcholine (3 μM) was added to the bath, in which the aortic rings were soaked, to assess endothelial integrity. […]

Row | Structure (SMILES) | phenylephrine-induced tension (rat thoracic aorta [1]) [g] | maximum relaxation induced (rat thoracic aorta [2]; TAA 100 μM, contraction induced by 10 μM phenylephrine, n=16) [%] | vasorelaxing effect in rat thoracic aorta (rat thoracic aorta [2]; TAA 100 μM, phenylephrine precontracted aortic rings) | relaxation in phenylephrine-induced contraction (rat thoracic aorta [2]; endothelium-intact preparations) | increase of relaxation (rat thoracic aorta [3]; TAA 100 μM, n=16) [%] | relaxation levels (rat thoracic aorta [3]; TAA 0.1-100 μM)
1 | O=[N+]([O-])OCC(CO[N+](=O)[O-])O[N+](=O)[O-] [GTN, glyceryltrinitrate] | 1.3 |  |  |  |  | 
2 | O=C(O)/C=C(\CC(=O)O)C(=O)O [TAA, trans-aconitic acid] |  | 40 | significant vasorelaxing effect | concentration-dependent relaxation | 55 | significant increase of relaxation levels
